Data on six molecules can be found in BindingDB's records for patent US12115157 (Boehringer Ingelheim International, 2024).

Broadly, the EC50 is the concentration that produces a half-maximal response.

Chain of G-protein coupled receptor 52 (Q9Y2T5 whole entry): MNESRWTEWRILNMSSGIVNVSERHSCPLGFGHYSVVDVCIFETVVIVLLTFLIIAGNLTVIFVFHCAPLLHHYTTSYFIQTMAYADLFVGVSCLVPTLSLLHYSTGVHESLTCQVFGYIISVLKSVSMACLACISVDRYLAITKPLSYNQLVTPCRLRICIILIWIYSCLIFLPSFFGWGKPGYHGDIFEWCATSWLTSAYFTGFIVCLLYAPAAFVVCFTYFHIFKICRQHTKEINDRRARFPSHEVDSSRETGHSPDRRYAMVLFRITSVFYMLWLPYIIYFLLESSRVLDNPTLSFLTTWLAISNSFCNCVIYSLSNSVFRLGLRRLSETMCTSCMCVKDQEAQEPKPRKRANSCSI

The experiment concerns the target G-protein coupled receptor 52 (Homo sapiens, UniProt Q9Y2T5). The experiment can be described thus: Homogeneous Time-Resolved Fluorescence (HTRF) Assay. As for the experimental part:
HTRF cAMP assays were performed using commercially available assay kits according to the manufacturer's instructions (cAMP Dynamic 2 Assay Kit; #62AM4PEJ, Cisbio Bioassays, Bedford, MA). An aliquot of CHO-K1 cells stably expressing recombinant human GPR52 was thawed and resuspended in cell buffer (1×PBS (w/o Ca2+/Mg2+)) at a density of 4×10^5 cells per mL. Test compounds were solubilized in DMSO to 10 mM stock solutions and serially diluted in DMSO using 6-fold dilutions to generate 8-point dose response curves. These serially diluted samples were then diluted 1:50 in compound dilution buffer (1×PBS (w/o Ca2+/Mg2+) containing 0.5 mM IBMX, 0.1% BSA) to achieve a 4× stock. The diluted compounds were transferred (5 μL per well) in duplicate to the 384-well assay plate (Optiplate #6007290, PerkinElmer, Waltham, MA). Both a positive (reference compound) and negative (non-stimulated vehicle) control was included in each assay run in column 23. The cell suspension was subsequently dispensed into the 384-well assay plates at 15 μL per well (6000 cells) such that the compound was diluted to 1×. […] After a one-hour incubation at room temperature, 10 μL of cAMP D2 reagent followed by 10 μL of cryptate reagent (provided in the Cisbio kit) was added to each well. Plates were then incubated at room temperature for one hour prior to reading. Time-resolved fluorescence measurements were collected on an EnVision HTRF plate reader (PerkinElmer, Waltham, MA).
In turn, `CC(=O)N1C[C@H](NC(=O)c2nccnc2N2CC(Oc3ccc(F)c(F)c3)C2)C(F)(F)C1` [US12115157, Ex. 8b] came in with an EC50 of 7 nM.
With `CC(=O)N1C[C@@H](NC(=O)c2nccnc2N2CC(Oc3cc(F)c(F)c(F)c3)C2)C(F)(F)C1` [US12115157, Ex. 11a] the figure was 1280 nM; with `CC(=O)N1C[C@@H](NC(=O)c2nsnc2N2CC(Oc3ccc(F)c(F)c3)C2)C(F)(F)C1` [US12115157, Ex. 13a], 595 nM; with `CC(=O)N1C[C@H](NC(=O)c2nccnc2N2CC(Oc3cc(F)c(F)c(F)c3)C2)C(F)(F)C1` [US12115157, Ex. 11b], 10 nM.
With `CC(=O)N1C[C@H](NC(=O)c2nsnc2N2CC(Oc3ccc(F)c(F)c3)C2)C(F)(F)C1` [US12115157, Ex. 13b], the EC50 was determined as 3 nM.
Next, `CC(=O)N1C[C@@H](NC(=O)c2nccnc2N2CC(Oc3ccc(F)c(F)c3)C2)C(F)(F)C1` [US12115157, Ex. 8a]: 1090 nM.
